# Results from US6713474B2, “Pyrrolopyrimidines as therapeutic agents” (Abbott GmbH & Co. KG, priority 1998, dated 2004).
row,Compound,melting point [°C]
1,"N#Cc1cc(F)ccc1Oc1ccc(-c2cn(C3CCOCC3)c3ncnc(N)c23)cc1 [Example 53, 2-[4-(4-Amino-7-(4-tetrahydropyranyl)-7H-pyrrolo[2,3-d]pyrimidin-5-yl)phenoxy]-5-fluorobenzonitrile]",216 to 217
2,"N#Cc1c(NCCc2ccncc2)cccc1Oc1ccc(-c2cn(C3CCOCC3)c3ncnc(N)c23)cc1 [Example 51, 2-[4-(4-Amino-7-(4-tetrahydropyranyl)-7H-pyrrolo[2,3-d]pyrimidin-5-yl)phenoxy]-6-(2-(4-pyridyl)ethylamino)benzonitrile]",120 to 123
3,"Nc1ncnc2c1c(-c1ccc(Oc3cccc(CN4CCOCC4)c3)cc1)cn2C1CCOC1 (stereo not drawn) [Example 37, 5-[4-(3-Morpholinomethylphenoxy)phenyl]-7-(3-tetrahydrofuryl)-7H-pyrrolo[2,3-d]pyrimidin-4-ylamine]",83 to 85
4,"Nc1ncnc2c1c(-c1ccc(Oc3ccccc3)cc1)cn2C1COCC1O (stereo not drawn) [Example 30, 4-[4-Amino-5-(4-phenoxyphenyl)-7H-pyrrolo-[2,3-d]pyrimidin-7-yl]tetrahydrofuran-3-ol]",234.5 to 235.5
5,"Nc1ncnc2c1c(-c1ccc(Oc3ccccc3)cc1)c(Br)n2C1CCOC1 (stereo not drawn) [Example 40, 4-Amino-6-bromo-5-(4-phenoxyphenyl)-7-(3-tetrahydrofuryl)-7H-pyrrolo[2,3-d]pyrimidine]",205 to 206
6,Cl.Cl.NCCCCCCCCn1cc(-c2ccc(Oc3ccccc3)cc2)c2c(N)ncnc21.O.O (hydrate or solvate),120
7,"N#Cc1ccccc1Oc1ccc(-c2cn(C3CCOC3)c3ncnc(N)c23)cc1 (stereo not drawn) [Example 28, 2-[4-(4-Amino-7-(3-tetrahydrofuryl)-7H-pyrrolo[2,3-d]pyrimidin-5-yl)phenoxy]-benzonitrile]",201 to 203
8,"Nc1ncnc2c1c(-c1ccc(Oc3ccccc3CN3CCCCC3)cc1)cn2C1CCOC1 (stereo not drawn) [Example 32, 5-[4-(2-Piperidinomethylphenoxy)phenyl]-7-(3-tetrahydrofuryl)-7H-pyrrolo[2,3-d]pyrimidin-4-ylamine]",76 to 78
9,"COCCCNc1cccc(Oc2ccc(-c3cn(C4CCOCC4)c4ncnc(N)c34)cc2)c1C#N [Example 52, 2-[4-(4-Amino-7-(4-tetrahydropyranyl)-7H-pyrrolo[2,3-d]pyrimidin-5-yl)phenoxy)-6-(3-methoxypropylamino)benzonitrile]",205 to 207
10,"N#Cc1c(NCCc2ccncc2)cccc1Oc1ccc(-c2cn(C3CCOC3)c3ncnc(N)c23)cc1 (stereo not drawn) [Example 38, 2-[4-(4-Amino-7-(3-tetrahydrofuryl)-7H-pyrrolo[2,3-d]pyrimidin-5-yl)phenoxy]-6-(2-(4-pyridyl)ethylamino)-benzonitrile]",212 to 213
11,"Nc1ncnc2c1c(-c1ccc(Oc3ccccc3CN3CCOCC3)cc1)cn2C1CCOC1 (stereo not drawn) [Example 31, 5-[4-(2-Morpholinomethylphenoxy)phenyl]-7-(3-tetrahydrofuryl)-7H-pyrrolo[2,3-d]pyrimidin-4-ylamine]",169 to 171
12,"N#Cc1ccccc1Oc1ccc(-c2cn(C3CCOCC3)c3ncnc(N)c23)cc1 [Example 42, 2-[4-(4-Amino-7-(4-tetrahydropyranyl)-7H-pyrrolo[2,3-d]pyrimidin-5-yl)phenoxy]benzonitrile]",125
13,NCc1cccnc1-n1cc(-c2ccc(Oc3ccccc3)cc2)c2c(N)ncnc21.O=C(O)/C=C\C(=O)O.O=C(O)/C=C\C(=O)O,131 to 134

# Other lines, results leading:
row,melting point [°C],Compound
1,182 to 184,"Nc1ncnc2c1c(-c1ccc(Oc3ccccc3)cc1)cn2C1CCNC1 (stereo not drawn) [Example 205, 5-(4-Phenoxyphenyl)-7-(3-pyrrolidinyl) -7H-pyrrolo[2,3-d]pyrimidin-4-ylamine]"
2,85 to 86,"Nc1ncnc2c1c(-c1ccc(Oc3ccccc3)cc1)cn2CCCCCCCCN1C(=O)c2ccccc2C1=O [Example 169, 5-(4-Phenoxyphenyl)-7-(8-phthalimidooctyl)-7H-pyrrolo[2,3-d]pyrimidin-4-ylamine]"
3,145 to 147,"Nc1ncnc2c1c(-c1ccc(Oc3ccccc3)cc1)cn2CC(=O)NCCOCCO [Example 156, N-[-2(2-hydroxyethoxy)ethyl]-2-[4-amino-5-(4-phenoxyphenyl)-7H-pyrrolo[2,3-d]-pyrimidin-7-yl]acetamide]"
4,161 to 161.3,"CCOC(=O)Cn1cc(-c2ccc(Oc3ccccc3)cc2)c2c(N)ncnc21 [Example 150, Ethyl 2-[4-Amino-5-(4-phenoxyphenyl)-7H-pyrrolo[2,3-d]pyrimidin-7-yl]acetate]"
5,101 to 104,"Nc1ncnc2c1c(-c1ccc(Oc3ccccc3)cc1)cn2[C@H]1CC[C@@H](N2CCCC2)CC1 [Example 193, cis-5-(4-Phenoxyphenyl)-7-(4-pyrrolidinocyclohex-1-yl)-7H-pyrrolo[2,3-d]pyrimidin-4-ylamine]"
6,111 to 112,"Nc1ncnc2c1c(-c1ccc(Oc3ccccc3)cc1)cn2CCN1C(=O)c2ccccc2C1=O [Example 171, N-{2-[4-Amino-5-(4-phenoxyphenyl)-7H-pyrrolo[2,3-d]pyrimidin-7-yl]ethyl}phthalimide]"
7,180 to 182,"CN(C)[C@H]1CC[C@@H](n2cc(-c3ccc(Oc4ccccc4)cc3)c3c(N)ncnc32)CC1 [Example 196, cis-7-(4-Dimethylaminocyclohexyl)-5-(4-phenoxyphenyl)-7H-pyrrolo[2,3-d]pyrimidin-4-ylamine]"
8,164 to 165,"Nc1ncnc2c1c(-c1ccc(Oc3ccccc3)cc1)cn2CC(=O)NCCN1CCOCC1 [Example 153, N-(2-Morpholinoethyl)-2-[4-amino-5-(4-phenoxyphenyl)-7H-pyrrolo[2,3-d]pyrimidin-7-yl]acetamide]"
9,227 to 228,"CC(C)(C(N)=O)n1cc(-c2ccc(Oc3ccccc3)cc2)c2c(N)ncnc21 [Example 160, 2-[4-Amino-5-(4-phenoxyphenyl)pyrrolo[2,3-d]pyrimidin-7-yl]-2-methylpropionamide]"
10,160.5 to 161,"CC(C)C(=O)n1cc(-c2ccc(Oc3ccccc3)cc2)c2c(N)ncnc21 [Example 173, 7-Isobutyryl-5-(4-phenoxyphenyl)-7H-pyrrolo[2,3-d]pyrimidin-4-ylamine]"
11,239.5 to 241,"CC(C(=O)O)n1cc(-c2ccc(Oc3ccccc3)cc2)c2c(N)ncnc21 (stereo not drawn) [Example 157, 2-[4-Amino-5-(4-phenoxyphenyl)-7H-pyrrolo[2,3-d]pyrimidin-7-yl]propionic Acid]"
12,168.5 to 169.5,"CC(C)(C)OC(=O)N1CCC(n2cc(-c3ccc(Oc4ccccc4)cc3)c3c(N)ncnc32)CC1 [Example 200, tert-Butyl 4-[4-Amino-5-(4-phenoxyphenyl)-7H-pyrrolo[2,3-d]pyrimidin-7-yl]-1-piperidinecarboxylate]"
13,207.5 to 210,"CN(C)[C@H]1CC[C@H](n2cc(-c3ccc(Oc4ccccc4)cc3)c3c(N)ncnc32)CC1 [Example 196, Trans-7-(4-Dimethylaminocyclohexyl)-5-(4-phenoxyphenyl)-7H-pyrrolo[2,3-d]pyrimidin-4-ylamine]"
14,193 to 194,"Nc1ncnc2c1c(-c1ccc(Oc3ccccc3)cc1)cn2C1CCC2(CC1)OCCO2 [Example 174, 5-(4-Phenoxyphenyl)-7-(1,4-dioxaspiro[4,5]decan-8-yl)-7H-pyrrolo[2,3-d]pyrimidin-4-ylamine]"
